Test results taken from patent US9358290B2, “Pharmaceutical formulations” (MOREX DEVELOPMENT PARTNERS LLP, priority 2012, dated 2016).
Where “and” joins values, the source holds several entries; their conditions need not be identical. Equal values may be shown once. Marks after values point to notes of the source that are not given here.

Experiments:
Type in all cases: physicochemical
[1] = Initial solubility screening in water-miscible solvents (filtrate assayed by UV absorbance at 420.6 nm)
Procedure: (§1) Initial solubility screening tests were therefore carried out to determine the solubility of MTL-005 in various water-miscible solvents. The screening tests were carried out by dissolving the MTL-005 in the test solvent, filtering the resulting solution to remove any undissolved materials and assaying the filtrate by measuring the UV absorbance at 420.6 nm.

[2] = Solubility in mixtures of DMA and water
Procedure: as §1
In order to assess the suitability of DMA solutions of MTL-005 for administration by aqueous infusion, the solubility of MTL-005 in mixtures of DMA and water was assessed using the assay method described above.

[3] = Solubility in DMA/co-solvent mixtures
Procedure: as §1
According to the invention, water-miscible co-solvents are added to the DMA in order to improve the solubility of the MTL-005 when the formulation is diluted with water. Tests were therefore carried out to determine the solubility of MTL-005 in various DMA/co-solvent mixtures using the methods described above.
In the first series of tests, approximately 50 mg/ml MTL-005 was added to a range of cosolvent vehicles. A solubility in the region of 50 mg/ml was obtained for a range of vehicles (see results in column 1 in Table 3 below), therefore it could not be confirmed that saturated solutions were obtained. The work was therefore repeated at a higher MTL-005 loading of 150 mg/ml (see results in column 2 of Table 3).

Stability studies = assay: Stability studies

- Total MTL-005 dissolved ([1]; solvent: Absolute ethanol): 0.089 mg/mL
- Total MTL-005 dissolved ([1]; solvent: Benzyl alcohol): 0.91 mg/mL
- Total MTL-005 dissolved ([1]; solvent: Cremophor EL 5% aq): 0.24 mg/mL
- Total MTL-005 dissolved ([1]; solvent: Cremophor EL 10% aq): 0.27 mg/mL
- Total MTL-005 dissolved ([1]; solvent: Cremophor EL 10% aq(heated)): 1.65 mg/mL
- Total MTL-005 dissolved ([1]; solvent: DMA 10% w/v aq): 0.13 mg/mL
- Total MTL-005 dissolved ([1]; solvent: DMA 10%, Cremophor EL 5% aq): 0.30 mg/mL
- Total MTL-005 dissolved ([1]; solvent: DMA diluted 1 in 10 with Solutol HS15 20% w/v aq): 1.44 mg/mL
- Total MTL-005 dissolved ([1]; solvent: Deionised water): 0.001 mg/mL
- Total MTL-005 dissolved ([1]; solvent: Glycofurol): 8.68 mg/mL
- Total MTL-005 dissolved ([1]; solvent: Macrogol 300): 2.60 mg/mL
- Total MTL-005 dissolved ([1]; solvent: N,N-Dimethylacetamide (DMA), result close to concentration in sample, solubility may be greater): 74.08* mg/ml
- Total MTL-005 dissolved ([1]; solvent: Polysorbate 20 (5% w/v aq)): 0.27 mg/mL
- Total MTL-005 dissolved ([1]; solvent: Polysorbate 20 (10% w/v aq)): 0.13 mg/mL
- Total MTL-005 dissolved ([1]; solvent: Polysorbate 20 (20% w/v aq)): 0.13 mg/mL
- Total MTL-005 dissolved ([1]; solvent: Polysorbate 20, result close to concentration in sample, solubility may be greater): 5.88* mg/ml
- Total MTL-005 dissolved ([1]; solvent: Polysorbate 80 5%, Cremophor EL 5% aq): 0.28 mg/mL
- Total MTL-005 dissolved ([1]; solvent: Polysorbate 80 5%, DMA 10% aq): 0.45 mg/mL
- Total MTL-005 dissolved ([1]; solvent: Polysorbate 80 5%, DMA 10%, Cremophor EL 5% aq): 0.35 mg/mL
- Total MTL-005 dissolved ([1]; solvent: Polysorbate 80 (5% w/v aq)): 0.15 mg/mL and 0.22 mg/mL
- Total MTL-005 dissolved ([1]; solvent: Polysorbate 80 (10% w/v aq)): 0.25 mg/mL
- Total MTL-005 dissolved ([1]; solvent: Polysorbate 80 (20% w/v aq)): 0.38 mg/mL
- Total MTL-005 dissolved ([1]; solvent: Propylene glycol): 0.019 mg/mL
- Total MTL-005 dissolved ([1]; solvent: Solutol HS15): 11.50 mg/mL
- Total MTL-005 dissolved ([1]; solvent: Solutol HS15 (5% w/v aq)): 0.08 mg/mL
- Total MTL-005 dissolved ([1]; solvent: Solutol HS15 (10% w/v aq)): 0.10 mg/mL
- Total MTL-005 dissolved ([1]; solvent: Solutol HS15 (20% w/v aq)): 0.16 mg/mL
- Total MTL-005 dissolved ([1]; solvent: Soyabean oil): 0.59 mg/mL
- Total MTL-005 dissolved ([1]; solvent: pH 7 Britton Robinson buffer): 0.0016 mg/mL
- Solubility ([2]; vehicle: 20% DMA/80% Water, 5 mg/ml added): <50 µg/mL
- Solubility ([2]; vehicle: 40% DMA/60% Water, 5 mg/ml added): <50 µg/mL
- Solubility ([2]; vehicle: 60% DMA/40% Water, 20 mg/ml added): <50 µg/mL
- Solubility ([2]; vehicle: 80% DMA/20% Water, 18 mg/ml added): <50 µg/mL
- Solubility ([2]; vehicle: 100% DMA, 92.5 mg/ml added): >90000 µg/mL
- Total MTL-005 dissolved (50 mg/ml added) ([3]; DMA 60%, Macrogol 300 40%): 34 mg/mL
- Total MTL-005 dissolved (50 mg/ml added) ([3]; DMA 60%, Propylene Glycol 40%): 4 mg/mL
- Total MTL-005 dissolved (50 mg/ml added) ([3]; DMA 60%, Solutol HS 40%, may not be saturated): 51 mg/mL
- Total MTL-005 dissolved (150 mg/ml added) ([3]; DMA 60%, Solutol HS 40%): 58 mg/mL
- Total MTL-005 dissolved (50 mg/ml added) ([3]; DMA 60%, Tetraglycol 40%, may not be saturated): 53 mg/mL
- Total MTL-005 dissolved (150 mg/ml added) ([3]; DMA 60%, Tetraglycol 40%): 94 mg/mL
- Total MTL-005 dissolved (50 mg/ml added) ([3]; DMA 60%, Tween 20 40%, may not be saturated): 47 mg/mL
- Total MTL-005 dissolved (150 mg/ml added) ([3]; DMA 60%, Tween 20 40%): 37 mg/mL
- Total MTL-005 dissolved (150 mg/ml added) ([3]; DMA 70%, Solutol HS 20%, Macrogol 300 10%): 74 mg/mL
- Total MTL-005 dissolved (150 mg/ml added) ([3]; DMA 70%, Solutol HS 30%): 70 mg/mL
- Total MTL-005 dissolved (50 mg/ml added) ([3]; DMA 80%, Macrogol 300 10%, Propylene Glycol 10%, may not be saturated): 48 mg/mL
- Total MTL-005 dissolved (50 mg/ml added) ([3]; DMA 80%, Macrogol 300 10%, Tetraglycol 10%, may not be saturated): 49 mg/mL
- Total MTL-005 dissolved (50 mg/ml added) ([3]; DMA 80%, Macrogol 300 20%, may not be saturated): 50 mg/mL
- Total MTL-005 dissolved (150 mg/ml added) ([3]; DMA 80%, Macrogol 300 20%): 76 mg/mL
- Total MTL-005 dissolved (50 mg/ml added) ([3]; DMA 80%, Propylene Glycol 20%): 27 mg/mL
- Total MTL-005 dissolved (50 mg/ml added) ([3]; DMA 80%, Solutol HS 10%, Macrogol 300 10%, may not be saturated): 49 mg/mL
- Total MTL-005 dissolved (150 mg/ml added) ([3]; DMA 80%, Solutol HS 10%, Macrogol 300 10%): 95 mg/mL
- Total MTL-005 dissolved (50 mg/ml added) ([3]; DMA 80%, Solutol HS 10%, Propylene Glycol 10%, may not be saturated): 50 mg/mL
- Total MTL-005 dissolved (150 mg/ml added) ([3]; DMA 80%, Solutol HS 10%, Propylene Glycol 10%): 58 mg/mL
- Total MTL-005 dissolved (50 mg/ml added) ([3]; DMA 80%, Solutol HS 10%, Tetraglycol 10%, may not be saturated): 49 mg/mL
- Total MTL-005 dissolved (150 mg/ml added) ([3]; DMA 80%, Solutol HS 10%, Tetraglycol 10%): 113 mg/mL
- Total MTL-005 dissolved (50 mg/ml added) ([3]; DMA 80%, Solutol HS 20%, may not be saturated): 49 mg/mL
- Total MTL-005 dissolved (150 mg/ml added) ([3]; DMA 80%, Solutol HS 20%): 115 mg/mL
- Total MTL-005 dissolved (50 mg/ml added) ([3]; DMA 80%, Tetraglycol 10%, Propylene Glycol 10%, may not be saturated): 50 mg/mL
- Total MTL-005 dissolved (50 mg/ml added) ([3]; DMA 80%, Tetraglycol 20%, may not be saturated): 52 mg/mL
- Total MTL-005 dissolved (150 mg/ml added) ([3]; DMA 80%, Tetraglycol 20%): 131 mg/mL
- Total MTL-005 dissolved (50 mg/ml added) ([3]; DMA 80%, Tween 20 10%, Macrogol 300 10%, may not be saturated): 50 mg/mL
- Total MTL-005 dissolved (150 mg/ml added) ([3]; DMA 80%, Tween 20 10%, Macrogol 300 10%): 83 mg/mL
- Total MTL-005 dissolved (50 mg/ml added) ([3]; DMA 80%, Tween 20 10%, Propylene Glycol 10%, may not be saturated): 49 mg/mL
- Total MTL-005 dissolved (150 mg/ml added) ([3]; DMA 80%, Tween 20 10%, Propylene Glycol 10%): 79 mg/mL
- Total MTL-005 dissolved (50 mg/ml added) ([3]; DMA 80%, Tween 20 10%, Solutol HS 10%, may not be saturated): 52 mg/mL
- Total MTL-005 dissolved (50 mg/ml added) ([3]; DMA 80%, Tween 20 10%, Tetraglycol 10%, may not be saturated): 48 mg/mL
- Total MTL-005 dissolved (150 mg/ml added) ([3]; DMA 80%, Tween 20 10%, Tetraglycol 10%): 101 mg/mL
- Total MTL-005 dissolved (50 mg/ml added) ([3]; DMA 80%, Tween 20 20%, may not be saturated): 51 mg/mL
- Total MTL-005 dissolved (150 mg/ml added) ([3]; DMA 80%, Tween 20 20%): 91 mg/mL
- Stability as a dry powder (Stability studies; dry powder): relatively stable as a dry powder
Substance: Copper meso-5,15-bis[3-[(1,2-dicarba-closo-dodecaboranyl)-methoxy]-phenyl]-meso-10,20-dinitroporphyrin [MTL-005]
- Stability in solution (Stability studies; in solution): not stable for extended periods in solution
